Here are results for two compounds from paper PMC7306040, “Exploring the abundance of oleate hydratases in the genus Rhodococcus—discovery of novel enzymes with complementary substrate scope” (Applied Microbiology and Biotechnology, 2020).

The target in assay [1] is T1, RpOhy (DSM 20415) (Rhodococcus pyridinivorans, UniProt A0A7T7LF34).
T1 construct: gene INP59_15660; N-terminally His6-tagged, codon-optimised, pBAD/His A, E. coli TOP10; Ni-NTA and SEC; monomer, dimer and larger aggregates
T1 sequence (A0A7T7LF34 1-601): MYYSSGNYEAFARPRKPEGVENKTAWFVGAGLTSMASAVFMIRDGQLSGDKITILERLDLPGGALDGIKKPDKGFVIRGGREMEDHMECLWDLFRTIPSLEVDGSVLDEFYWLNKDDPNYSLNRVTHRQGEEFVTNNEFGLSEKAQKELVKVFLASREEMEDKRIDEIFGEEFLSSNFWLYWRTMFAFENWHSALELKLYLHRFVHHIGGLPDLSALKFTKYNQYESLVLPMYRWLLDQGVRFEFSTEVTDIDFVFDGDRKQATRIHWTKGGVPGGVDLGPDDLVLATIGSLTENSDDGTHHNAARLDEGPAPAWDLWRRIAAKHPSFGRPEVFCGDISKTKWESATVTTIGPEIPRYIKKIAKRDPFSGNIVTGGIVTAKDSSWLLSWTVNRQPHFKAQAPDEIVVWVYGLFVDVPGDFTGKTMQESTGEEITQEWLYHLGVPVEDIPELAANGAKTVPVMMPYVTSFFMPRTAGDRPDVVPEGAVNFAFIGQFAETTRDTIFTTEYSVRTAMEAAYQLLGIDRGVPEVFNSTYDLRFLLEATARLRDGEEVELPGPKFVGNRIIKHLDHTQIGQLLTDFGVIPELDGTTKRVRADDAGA
Nature of the assay: yellow colour of purified enzyme; oleic acid conversion with […] added FAD. Format: binding. The note with it: 20 mM acetate pH 5, 25 °C, 500 uM oleic acid, 1% DMSO.

Assay [2] has as its target T1, RpOhy (DSM 20415). Nature of the assay: coupled assay with alcohol dehydrogenase ADH010, NADH at […] nm. Format: biochemical. The note with it: apparent cooperative, Hill n 2.45 ± 0.47; 2 mM NAD+, 50 mM PIPES pH 6.5, 10% DMSO; read-out: K0.5.

Each structure is given as a SMILES string.

On to `Cc1cc2nc3c(=O)[nH]c(=O)nc-3n(C[C@H](O)[C@H](O)[C@H](O)COP(=O)(O)OP(=O)(O)OC[C@H]3O[C@@H](n4cnc5c(N)ncnc54)[C@H](O)[C@@H]3O)c2cc1C` [FAD], for which the “yellow colour of purified enzyme; oleic acid conversion with 0-100 uM added FAD” value on RpOhy (DSM 20415) [1] is “yellow colour indicating that the FAD cofactor was incorporated in the enzyme”. Turning to `CCCCCCCC/C=C\CCCCCCCC(=O)O` [compound 3, Oleic acid], the Km at RpOhy (DSM 20415) [2] amounted to 720 ± 70 µM.
